Here are results for two molecules from US20050234073A1, “Methods of inhibiting inflammation” (priority 2003, published 2005).

Residue numbers refer to the chain shown, from its start.

The target in assay [1] is T1, MTP (Mus musculus, UniProt O08601).
T1 construct: Splenocyte lysates contained measurable triglyceride transfer activity; endogenous in cells; host or cells: primary mouse splenocytes (crude lysate)
T1 sequence (O08601 22-894): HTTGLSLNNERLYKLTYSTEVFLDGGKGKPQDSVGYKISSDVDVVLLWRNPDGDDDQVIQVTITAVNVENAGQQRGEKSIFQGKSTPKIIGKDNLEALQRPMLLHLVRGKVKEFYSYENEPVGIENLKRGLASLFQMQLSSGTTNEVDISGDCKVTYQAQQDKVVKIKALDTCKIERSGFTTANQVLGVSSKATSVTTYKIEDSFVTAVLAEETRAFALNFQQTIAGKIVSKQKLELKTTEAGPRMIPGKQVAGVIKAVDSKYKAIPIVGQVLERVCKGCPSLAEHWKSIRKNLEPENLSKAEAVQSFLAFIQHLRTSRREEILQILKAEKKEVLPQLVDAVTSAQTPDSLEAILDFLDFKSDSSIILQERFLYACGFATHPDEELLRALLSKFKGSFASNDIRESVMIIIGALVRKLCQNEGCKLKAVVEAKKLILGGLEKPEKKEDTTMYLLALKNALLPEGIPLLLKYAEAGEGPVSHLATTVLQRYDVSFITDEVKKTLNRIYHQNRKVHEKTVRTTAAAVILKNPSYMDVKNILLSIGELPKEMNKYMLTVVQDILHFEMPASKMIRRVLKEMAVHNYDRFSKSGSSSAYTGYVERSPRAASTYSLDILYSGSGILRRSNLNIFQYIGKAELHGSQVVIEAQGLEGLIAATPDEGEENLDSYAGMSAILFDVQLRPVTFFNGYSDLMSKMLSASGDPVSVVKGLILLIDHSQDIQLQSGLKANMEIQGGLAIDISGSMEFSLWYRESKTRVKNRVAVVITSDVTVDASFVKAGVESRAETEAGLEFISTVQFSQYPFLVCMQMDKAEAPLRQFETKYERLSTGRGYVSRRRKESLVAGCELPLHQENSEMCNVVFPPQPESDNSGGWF
T1 sequence (P09103 20-509 partner): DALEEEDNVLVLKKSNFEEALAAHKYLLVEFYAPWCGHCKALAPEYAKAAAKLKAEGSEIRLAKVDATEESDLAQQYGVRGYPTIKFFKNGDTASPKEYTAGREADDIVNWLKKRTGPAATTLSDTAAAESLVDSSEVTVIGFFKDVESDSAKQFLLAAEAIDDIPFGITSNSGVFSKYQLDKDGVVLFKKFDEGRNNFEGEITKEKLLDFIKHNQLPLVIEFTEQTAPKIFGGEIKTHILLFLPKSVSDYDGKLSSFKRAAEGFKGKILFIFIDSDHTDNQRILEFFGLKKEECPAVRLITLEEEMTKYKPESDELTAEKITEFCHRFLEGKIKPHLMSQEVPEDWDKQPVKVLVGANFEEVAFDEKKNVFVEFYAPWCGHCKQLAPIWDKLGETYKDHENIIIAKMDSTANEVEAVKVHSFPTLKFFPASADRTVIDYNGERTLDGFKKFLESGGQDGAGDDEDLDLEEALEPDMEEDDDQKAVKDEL
Put plainly: Triglyceride transfer assay in splenocyte lysates. Format: biochemical. Conditions: splenocyte lysate with inhibitor added. The procedure:
FIG. 15C is a line graph showing triglyceride transfer activity in 100 ug splenocyte lysate (Δ), 50 μg splenocyte lysate (◯), 100 μg splenocyte lysate with BMS197636 (▴), and 50 μg splenocyte lysate with BMS197636 (●). Assays were in triplicate with standard deviations less than 10% of percent transfer at 3 hours.
The triglyceride transfer activity of MTP was measured using donor phospholipids vesicles (Chylos Inc.) as described. PE transfer was done by overnight coating of a microtiter plate with 2 ug per well recombinant murine CD1d purified by baculovirus expression system. Wells were washed with PBS, incubated with PBS containing 0.5% isopropanol for 2 hours at 37° C., and washed again with PBS. […] Fluorescence was read with a fluorescence plate reader (7620 Microplate Fluorimeter; Cambridge Technology, Watertown, Mass.) using 460 nm excitation and 530 nm emission wavelengths.
In this assay, MTP function is assessed by studying the transfer of fluorescently labeled triglycerides embedded in donor phospholipid vesicles to acceptor vesicles. During the transfer, the amount of triglyceride associated with MTP can be measured as an increase in fluorescence over time. […]

Assay [2] has as its system C1Rd cells. Put plainly: C1Rd cell CD1d-mediated activation of human peripheral blood derived iNKT cell line with PMA (IFN-gamma). It counts as cell-based. As to conditions: limiting concentration of PMA. The procedure: FIG. 20E is a line chart showing IFN-gamma production in C1Rd cells cultured with BMS197636 or vehicle and incubated with NKT cell lines derived from human peripheral blood in the presence of 1 ng/mL PMA.
APCs were incubated with 100 ng/mL α-galcer (kindly provided by Dr. H. Ploegh) for 3 hours, washed three times in PBS and aliquoted into a 96 well plate at 10^6 cells/mL. DN32 cells were added at 1:1 E:T ratio unless otherwise indicated. CD4^+ cells were isolated from spleens of OT-II transgenic mice using positive selection on CD4 magnetic beads (Miltenyi Biotec) and incubated with APCs and 100 μg/mL ovalbumin. The 24.8 NKT cell line was incubated with APCs in the absence of added antigen at E:T=2:1 unless otherwise indicated. Mouse IL-2 production was assessed by ELISA (OptEIA, BD PharMingen) of 24 or 40 hour culture supernatants. APCs were treated with BMS212122 (10 uM dissolved in DMSO; kindly provided by Bristol Myers Squibb, New Jersey) as indicated and washed prior to addition of T or NKT cells. […]
C1Rd is a human B cell line transfected with human CD1d. […] Incubation of C1Rd cells with BMS212122, but not the vehicle, inhibited the presentation of α-galcer as determined by a reduction in IL-2 secretion (FIG. 20D).

Assay [3] concerns the target T2, recombinant murine CD1d (Mus musculus, UniProt P11609).
T2 construct: made in house; host or cells: baculovirus expression system (CD1d); rat liver (MTP)
T2 sequence (P11609 22-305 limits assumed): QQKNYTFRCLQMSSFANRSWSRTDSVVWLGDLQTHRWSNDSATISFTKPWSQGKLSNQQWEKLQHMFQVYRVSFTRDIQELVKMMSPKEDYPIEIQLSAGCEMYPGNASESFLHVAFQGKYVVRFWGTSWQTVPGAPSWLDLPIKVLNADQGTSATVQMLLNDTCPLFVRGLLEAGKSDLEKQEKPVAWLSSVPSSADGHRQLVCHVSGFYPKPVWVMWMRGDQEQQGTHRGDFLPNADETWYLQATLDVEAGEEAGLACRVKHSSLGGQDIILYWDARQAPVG
T2 sequence (P01887 21-119 partner): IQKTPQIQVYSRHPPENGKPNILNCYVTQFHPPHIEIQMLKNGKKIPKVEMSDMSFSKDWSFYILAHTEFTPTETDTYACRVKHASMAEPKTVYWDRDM
Put plainly: PE transfer assay from MTP to recombinant CD1d. Format: biochemical. Conditions: 0.5 μg purified MTP, PE:NBD vesicles, 2 hours 37 degrees. The method, then: FIG. 16A is a bar chart showing purified MTP transfers a lipid to recombinant CD1d in vitro. Two micrograms of BSA or recombinant CD1d were coated onto microtiter wells and incubated with either PE:NBD vesicles alone or PE:NBD vesicles plus 0.5 μg purified MTP. Results are representative of five independent experiments. *, p<0.005
The triglyceride transfer activity of MTP was measured using donor phospholipids vesicles (Chylos Inc.) as described. PE transfer was done by overnight coating of a microtiter plate with 2 ug per well recombinant murine CD1d purified by baculovirus expression system. […] Fluorescence was read with a fluorescence plate reader (7620 Microplate Fluorimeter; Cambridge Technology, Watertown, Mass.) using 460 nm excitation and 530 nm emission wavelengths.
Recombinant β2m associated CD1d was coated onto a 96 well plate and incubated with liposomes containing a 6:1 ratio of unlabeled PE:NBD-labeled PE. […] Lipids bound to CD1d were eluted with isopropanol, transferred to a black microtiter plate, and the level of fluorescence determined. […] Assuming equal efficiency of MTP-mediated transfer of labeled versus unlabeled PE to the CD1d pocket and that all CD1d molecules bound to the plastic in an orientation with the groove solvent accessible, we calculated that the maximum limit of NBD-labeled PE that could be transferred to CD1d was 4.7 picomoles in this assay. […]

As for “9-[4-[[[4′-(trifluoromethyl)[1,1′-biphenyl]-2-yl]carbonyl]amino]butyl-piperidin-4-yl]-N-(2,2,2-trifluoroethyl)-9H-fluorene-9-carboxamide [BMS197636]”, in assay [1], the “triglyceride transfer activity of splenocyte lysates” value is given as “abrogated”. Further, in assay [2], the “CD1d-mediated activation of human peripheral blood derived iNKT cell line” value is listed as “dose-dependent inhibition”.

B1: MTP: microsomal triglyceride transfer protein purified from rat liver (>95% pure by SDS-PAGE) (protein)
chain 1: T1 sequence (O08601 22-894) with G633K, K634G, A635T, V779L, E851Q
chain 2: T1 sequence (P09103 20-509 partner)
Take B1: the “increase in fluorescence above background (PE transferred to CD1d)” value in assay [3] is given as 5 fold.
